± gives the standard deviation of the averaged measurements.
Columns and labels:
TEMOZOLOMIDE = compound: Cn1nnc2c(C(N)=O)ncn2c1=O [TEMOZOLOMIDE]; test: surviving fraction relative to DMSO-only wells; higher = less growth inhibition; conditions: exposure time: 5 days
Summary of the method: (§1)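 Viability values are CellTiter-Glo luminescence readings, given as surviving fraction against the median of DMSO-only wells. The readings were taken after 10 minutes at room temperature, following five days of continuous exposure to inhibitors at 0.5, 1, 5, 10, 50, 100, 500 and 1000 nM that began 24 hours after log-phase tumour cell lines were seeded at 250–500 cells per well in 384-well plates. Every line was screened three times and kept only if replicate Pearson r >0.7 and median Z' >0.3.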

MLN-4924 = compound: NS(=O)(=O)OC[C@@H]1C[C@@H](n2ccc3c(N[C@H]4CCc5ccccc54)ncnc32)C[C@@H]1O [MLN-4924]; test: as above; conditions: exposure time: 5 days
Summary of the method: as §1

Test System	surviving fraction (TEMOZOLOMIDE; 0.5 nM)	surviving fraction (TEMOZOLOMIDE; 1 nM)	surviving fraction (TEMOZOLOMIDE; 5 nM)	surviving fraction (TEMOZOLOMIDE; 10 nM)	surviving fraction (TEMOZOLOMIDE; 50 nM)	surviving fraction (TEMOZOLOMIDE; 100 nM)	surviving fraction (TEMOZOLOMIDE; 500 nM)	surviving fraction (TEMOZOLOMIDE; 1000 nM)	surviving fraction (MLN-4924; 0.5 nM)	surviving fraction (MLN-4924; 1 nM)	surviving fraction (MLN-4924; 5 nM)	surviving fraction (MLN-4924; 10 nM)	surviving fraction (MLN-4924; 50 nM)	surviving fraction (MLN-4924; 100 nM)	surviving fraction (MLN-4924; 500 nM)	surviving fraction (MLN-4924; 1000 nM)
PCI30 HEADNECK	0.957 ± 0.026	0.976 ± 0.067	0.988 ± 0.023	1.04 ± 0.043	1.07 ± 0.047	1.05 ± 0.041	0.937 ± 0.013	0.939 ± 0.03	1.01 ± 0.028	1.01 ± 0.072	1.04 ± 0.023	0.939 ± 0.027	0.724 ± 0.028	0.701 ± 0.056	0.414 ± 0.015	0.377 ± 0.019
T47D BREAST	0.982 ± 0.011	1.057 ± 0.0064	1.04 ± 0.034	1.04 ± 0.055	1.06 ± 0.053	1.1 ± 0.018	1.08 ± 0.032	1.09 ± 0.025	1.04 ± 0.012	1.02 ± 0.021	0.916 ± 0.036	0.835 ± 0.037	0.67 ± 0.023	0.694 ± 0.011	0.279 ± 0.019	0.27 ± 0.028
HCT15 LARGE INTESTINE	1.014 ± 0.0029	1.029 ± 0.0053	0.999 ± 0.055	1.02 ± 0.053	1.02 ± 0.045	1.08 ± 0.05	1.04 ± 0.063	1.09 ± 0.062	1.06 ± 0.015	1.05 ± 0.095	1.07 ± 0.042	1.08 ± 0.065	0.966 ± 0.11	0.906 ± 0.11	0.299 ± 0.065	0.166 ± 0.041
HCC1954 BREAST	1.11 ± 0.19	0.956 ± 0.25	1.198 ± 0.0064	1.2 ± 0.082	1.16 ± 0.12	0.989 ± 0.13	1.04 ± 0.24	0.976 ± 0.023	1.12 ± 0.082	1.13 ± 0.045	1.09 ± 0.049	1.17 ± 0.3	0.656 ± 0.075	0.518 ± 0.021	0.1795 ± 0.0014	0.112 ± 0.016
HSSYII SYNOVIAL	0.958 ± 0.033	0.957 ± 0.061	0.965 ± 0.039	0.998 ± 0.051	1.02 ± 0.024	0.9798 ± 0.0033	0.981 ± 0.035	0.956 ± 0.04	1.01 ± 0.14	1 ± 0.078	0.965 ± 0.033	0.992 ± 0.071	0.286 ± 0.012	0.166 ± 0.008	0.0248 ± 0.001	0.0283 ± 0.002
MFM223 BREAST	1.46 ± 0.65	1.38 ± 0.44	1.5 ± 0.54	1.49 ± 0.63	1.38 ± 0.52	1.19 ± 0.07	1.38 ± 0.48	1.17 ± 0.08	1.43 ± 0.45	1.47 ± 0.56	1.33 ± 0.39	1.16 ± 0.56	0.586 ± 0.066	0.42 ± 0.032	0.181 ± 0.022	0.152 ± 0.062
MDAMB468 BREAST	0.983 ± 0.086	1.13 ± 0.045	1.114 ± 0.0027	1.17 ± 0.075	1.09 ± 0.07	1.15 ± 0.045	1.03 ± 0.1	1.12 ± 0.091	1.15 ± 0.068	1.09 ± 0.062	1.13 ± 0.1	1.04 ± 0.11	0.436 ± 0.0053	0.302 ± 0.05	0.18 ± 0.0087	0.178 ± 0.021
CHLA90 AUTONOMIC GANGLIA	0.928 ± 0.039	0.975 ± 0.047	0.941 ± 0.053	0.96 ± 0.023	0.963 ± 0.068	1.03 ± 0.055	1.02 ± 0.087	1.03 ± 0.098	1.006 ± 0.0078	0.969 ± 0.05	0.984 ± 0.062	1.03 ± 0.019	1.2 ± 0.065	0.993 ± 0.028	0.697 ± 0.13	0.525 ± 0.041
HCC78 LUNG	0.804 ± 0.046	0.791 ± 0.14	0.941 ± 0.062	1.02 ± 0.069	0.984 ± 0.11	0.916 ± 0.14	0.907 ± 0.058	0.785 ± 0.18	0.845 ± 0.11	0.588 ± 0.064	0.722 ± 0.17	0.808 ± 0.15	0.487 ± 0.067	0.27 ± 0.1	0.0393 ± 0.011	0.0343 ± 0.0078
HT1080 SOFT TISSUE	1.04 ± 0.039	1.03 ± 0.014	1.03 ± 0.026	1.03 ± 0.022	1.03 ± 0.026	1.04 ± 0.014	1.04 ± 0.017	1.03 ± 0.023	1.074 ± 0.0072	1.05 ± 0.047	1.112 ± 0.0055	1.14 ± 0.045	0.9977 ± 0.0078	0.705 ± 0.042	0.223 ± 0.022	0.11 ± 0.0061
